In patent US8334298B2, “Treatment or prevention of ovarian hyperstimulation syndrome (OHSS) using a dopamine agonist” (Ferring International Center S.A., priority 2005, dated 2012):
Where “and” joins values, the source holds several entries; their conditions need not be identical. Equal entries are not always repeated.

Assays:
[1] = tested on: OHSS rats; experiment: Dose response of quinagolide on vascular permeability in OHSS rats (Example 4); type: in vivo, Wistar rats; conditions: single rat, 48-56 h after hCG
Protocol: (§1) Inducing OHSS manifestations. A total of 96 female immature Wistar rats (Harlan Iberica, Sant Feliu de Codina, Barcelona, SPAIN), weighing from 42-48 grams at the beginning of these experiments (day 22), were used to carry out the studies disclosed in Examples 4 and 5. They were injected subcutaneously (s.c) with 10 IU of Pregnant Mare's Serum Gonadotropin (PMSG) (Sigma) for 4 consecutive days (days 22-25), followed by administered intraperitoneally (i.p.) with 30 IU of hCG on the fifth day (day 26) in order to induce OHSS clinical manifestations.
(§2) Measuring vascular permeability (VP). VP was used as an index to estimate and compare the degree of development of the illness. VP was measured in all animals 48-56 hours after hCG administration, following methodology previously described (Gomez et al., supra). Briefly, 0.2 ml Evans Blue dye, 0.05 M, was injected through the femoral vein. After 30 minutes, the peritoneal cavity was irrigated with 5 ml saline, pH 6, 22° C., and massaged for 30 seconds to recover extravasated dye. The peritoneal fluid was recovered in 13 ml tubes containing 0.1 ml NaOH. The tubes were centrifuged at 900×g for 12 minutes to avoid protein interference. The supernatant was filtered through 0.22 um filters in order to eliminate ascitic protein/fibrin mucus which could interfere in the posterior measurements. Finally the absorbance of the extravasated dye was measured at 595 nm using a spectrophotometer. Average and average deviations in each group (see below) were calculated. VP was expressed as μg extravasated Evans Blue dye/100 g body weight in each animal.
A total of 70 rats were used for this study. All 70 rats were administered PMSG/hCG to induce OHSS symptoms, as described above. Quinagolide (batch no. 1010003004; supplied by Ferring Labs) was administered to 56 rats. The 56 rats that received quinagolide were used as a dose response test group. […] Cabergoline (Dostinex®) was administered to 6 rats as a positive control. The specific details of the dosing regimen for each group is as follows:
Vehicle control group (quinagolide 0 μg/kg) (n=8). Eight rats were implanted with prolactin placebo pellets, 5 days release, between 10:00 to 11:00 on day 26, just following hCG injection (see General Procedures, above). Six hours after pellet implantation, the rats in this group were orally administered vehicle solution (1:6 alcohol in water mixture) (without quinagolide). They received another oral vehicle administration of vehicle solution 24 hours later. Experimental groups (quinagolide at 0.1, 0.3, 1, 3, 10, 25, 50 μg/kg/day to 7 test groups of rats) (n=8 in each test group). The rats in these groups were implanted with prolactin pellets, 5 days release, between 10:00 to 11:00 on day 26, just following hCG injection (see General Procedures, above). […] In this manner, the desired 0.1, 0.3, 1, 3, 10, 25, 50 μg/kg doses to be assayed were achieved. Twenty four hours later, the rats in this group were administered with another dose of the same amounts of quinagolide. Positive (cabergoline) control group (n=6). These six rats were implanted with prolactin pellets, 5 days release, between 10:00 to 11:00 .m on day 26, just following hCG injection. […] Twenty four hours later, the rats in this group were administered with another dose of the same amount of cabergoline. […] Reconstitution and dilution process to reach appropriate quinagolide doses for oral administration. Appropriate doses were prepared fresh just prior to being administered (on day 26). A single quinagolide vial, containing approximately 2.30-2.30 mg quinagolide, was employed for each single set of animals. For each solution, approximately 2.30-2.30 mg quinagolide was diluted in a vehicle solution (1:6 alcohol:water mixture) to achieve a stock concentration of 100 μg quinagolide per ml solution. […]

[2] = tested on: OHSS rats; experiment: Dose response of quinagolide on vascular permeability in OHSS rats, reassessment (Example 5); type: in vivo, Wistar rats; conditions: single rat
Protocol: as §1, §2
For Example 5, three quinagolide doses were tested: 5, […] 250 μg/kg/day. The 250 μg/kg/day dose was tested in order to determine if the maximal potential inhibitory effect of quinagolide had been reached in Example 4.
A total of 26 rats were used for this study. All 26 rats were administered PMSG/hCG to induce OHSS symptoms, as described above. Quinagolide was administered to 18 rats, divided into three groups of six rats per group. The 18 rats that received quinagolide were used as a dose response test group. […] A positive control group was not employed for this Example. The specific details of the dosing regimen for each group is as follows:
Vehicle control group (quinagolide 0 μg/kg) (n=8). Eight rats were implanted with prolactin placebo pellets, 5 days release, between 10:00 to 11:00 on day 26, just following hCG injection (see General Procedures, above). Six hours after prolactin placebo pellet implantation, the rats in this group were orally administered vehicle solution (1:6 alcohol:water mixture) (without quinagolide). They received another oral administration of vehicle solution 24 hours later. Experimental groups (quinagolide at 5, 62.5, 250 μg/kg/day to 3 test groups of rats) (n=6 in each test group). These rats were implanted with prolactin pellets, 5 days release, between 10:00 to 11:00 am on day 26, just following hCG injection (see General Procedures, above). […] In this manner, the desired 5, 62.5, and 250 μg/kg doses to be assayed were achieved. Twenty four hours later, the rats in this group were administered with another dose of the same amounts of quinagolide. Reconstitution and dilution process to reach appropriate quinagolide doses for oral administration. A commercial drug, Norprolac®, was used as the source of quinagolide for this Example. Four Norprolac® pills, containing 150 μg quinagolide each (600 μg quinagolide total) were diluted in 6250 μl of distilled water. A volume of 1250 μl of alcohol was added to reach a vehicle solution (1:6 alcohol:water mixture) containing 80 μg quinagolide per ml solution. A 1.5 ml aliquot was serially diluted (1:4, 1:12.5) in the same vehicle solution. A 250 μl oral administration of each quinagolide solution was given to the appropriate rat in each group on the same day hCG was administered (day 26), as described. […]

[3] = tested on: OHSS rats; experiment: Vascular permeability (Evans Blue) in OHSS rats treated with bromocriptine (Example 1); type: in vivo, Wistar rats; conditions: VP 48 h after hCG
Protocol: Drug Treatment. Immature female Wistar rats were employed. In the OHSS group (n=8), Pregnant Mare's Serum Gonadotropin (PMSG) was administered at 10 IU/day for 4 days, followed by hCG (30 IU) on the fifth day. In the mild (i.e., ovarian stimulation) group (n=8), 10 IU of PMSG was administered followed 2 days later by administration of 10 IU of hCG. In the control group, 1 IU of PMSG was administered followed by 1 IU of hCG 48 hrs later. Vascular Permeability Measurement. Vascular permeability was measured 48 hours following hCG administration. 0.2 ml of 5 mM Evans Blue stain was injected via the femoral vein. After 30 minutes, the peritoneal cavity was irrigated with saline. Light absorption was measured in the recovered fluid at 595 nm and the vascular permeability was expressed as μg Evans blue/100 g body weight. In a second series of experiments, varying doses of bromocriptine were administered in a group of rats induced to develop OHSS with 40 IU of PMSG followed by 30 IU of hCG. 1.6, 4.0, 10.0 and 25.0 mg/kg of bromocriptine were intraperitoneally administered on the day of hCG administration and 24 hours later. VP was measured 48 hours following hCG administration.

[4] = tested on: patients with treatment-resistant OHSS; conditions: oral docarpamine, 27 patients; cited from earlier work
[5] = quinagolide 5 μg/kg/day oral (Norprolac pills)
[6] = quinagolide 250 μg/kg/day oral (Norprolac pills)
[7] = quinagolide 62. μg/kg/day oral (Norprolac pills)

## CCCN1CC(NS(=O)(=O)N(CC)CC)CC2Cc3c(O)cccc3CC21 (stereo not drawn) [Quinagolide, quinagolide]
[1]; quinagolide 0.1 μg/kg/day oral
  Absorbance at 595 nm: 0.081 and 0.646 and 0.338 and 0.35
  μg EB per 100 g body weight: 4.871 μg EB per 100 g body weight and 37.81 μg EB per 100 g body weight and 21.05 μg EB per 100 g body weight and 21.19 μg EB per 100 g body weight
  μg Evans Blue (Abs * 4360): 353.16 µg and 2816.56 µg and 1473.68 µg and 1526 µg
[1]; quinagolide 0.3 μg/kg/day oral
  Absorbance at 595 nm: 0.28 and 0.547 and 0.768 and 0.342 and 0.444
  μg EB per 100 g body weight: 16.96 μg EB per 100 g body weight and 36.69 μg EB per 100 g body weight and 47.84 μg EB per 100 g body weight and 20.57 μg EB per 100 g body weight and 25.8112 μg EB per 100 g body weight
  μg Evans Blue (Abs * 4360): 1220.8 µg and 2384.92 µg and 3348.48 µg and 1491.12 µg and 1935.84 µg
[1]; quinagolide 1 μg/kg/day oral
  Absorbance at 595 nm: 0.396 and 0.341 and 0.389 and 0.424 and 0.256 and 0.205
  μg EB per 100 g body weight: 27.85 μg EB per 100 g body weight and 22.53 μg EB per 100 g body weight and 22.32 μg EB per 100 g body weight and 26.41 μg EB per 100 g body weight and 14.31 μg EB per 100 g body weight and 12.33 μg EB per 100 g body weight
  μg Evans Blue (Abs * 4360): 1726.56 µg and 1486.76 µg and 1696.04 µg and 1848.64 µg and 1116.16 µg and 893.8 µg
[1]; quinagolide 3 μg/kg/day oral
  Absorbance at 595 nm: 0.09 and 0.394 and 0.181 and 0.584 and 0.369 and 0.581
  μg EB per 100 g body weight: 5.945 μg EB per 100 g body weight and 26.84 μg EB per 100 g body weight and 9.927 μg EB per 100 g body weight and 37.17 μg EB per 100 g body weight and 23.32 μg EB per 100 g body weight and 31.08 μg EB per 100 g body weight
  μg Evans Blue (Abs * 4360): 392.4 µg and 1717.84 µg and 789.16 µg and 2546.24 µg and 1608.84 µg and 2533.16 µg
[1]; quinagolide 10 μg/kg/day oral
  Absorbance at 595 nm: 0.418 and 0.145 and 0.188 and 0.328 and 0.626
  μg EB per 100 g body weight: 24.63 μg EB per 100 g body weight and 8.543 μg EB per 100 g body weight and 12.42 μg EB per 100 g body weight and 19.73 μg EB per 100 g body weight and 37.39 μg EB per 100 g body weight
  μg Evans Blue (Abs * 4360): 1822.48 µg and 632.2 µg and 819.68 µg and 1430.08 µg and 2729.36 µg
[1]; quinagolide 25 μg/kg/day oral
  Absorbance at 595 nm: 0.299 and 0.311 and 0.042 and 0.669 and 0.08
  μg EB per 100 g body weight: 19.17 μg EB per 100 g body weight and 19.23 μg EB per 100 g body weight and 2.654 μg EB per 100 g body weight and 40.51 μg EB per 100 g body weight and 4.501 μg EB per 100 g body weight
  μg Evans Blue (Abs * 4360): 1303.64 µg and 1355.96 µg and 183.12 µg and 2916.84 µg and 348.8 µg
[1]; quinagolide 50 μg/kg/day oral
  Absorbance at 595 nm: 0.179 and 0.048 and 0.151 and 0.358 and 0.09 and 0.215
  μg EB per 100 g body weight: 10.84 μg EB per 100 g body weight and 2.847 μg EB per 100 g body weight and 9.144 μg EB per 100 g body weight and 22.95 μg EB per 100 g body weight and 5.267 μg EB per 100 g body weight and 12.5 μg EB per 100 g body weight
  μg Evans Blue (Abs * 4360): 780.44 µg and 209.28 µg and 658.36 µg and 1560.88 µg and 392.4 µg and 937.4 µg
[2]; [5]
  Absorbance at 595 nm: 0.622 and 0.924 and 0.491 and 0.181 and 0.242 and 0.335
  μg EB per 100 g body weight: 38.74 μg EB per 100 g body weight and 55.57 μg EB per 100 g body weight and 28.74 μg EB per 100 g body weight and 10.96 μg EB per 100 g body weight and 14.76 μg EB per 100 g body weight and 22.13 μg EB per 100 g body weight
  μg Evans Blue (Abs * 4360): 2711.92 µg and 4028.64 µg and 2140.76 µg and 789.16 µg and 1055.12 µg and 1460.6 µg
[2]; [6]
  Absorbance at 595 nm: 0.03 and 0.036 and 0.1709 and 0.021 and 0.103 and 0.056
  μg EB per 100 g body weight: 1.721 μg EB per 100 g body weight and 2.854 μg EB per 100 g body weight and 10.88 μg EB per 100 g body weight and 1.356 μg EB per 100 g body weight and 6.703 μg EB per 100 g body weight and 3.513 μg EB per 100 g body weight
  μg Evans Blue (Abs * 4360): 130.8 µg and 156.96 µg and 745.124 µg and 91.56 µg and 449.08 µg and 244.16 µg
[2]; [7]
  Absorbance at 595 nm: 0.115 and 0.125 and 0.256 and 0.209 and 0.299 and 0.201
  μg EB per 100 g body weight: 7.214 μg EB per 100 g body weight and 7.517 μg EB per 100 g body weight and 16.06 μg EB per 100 g body weight and 13.3 μg EB per 100 g body weight and 19.03 μg EB per 100 g body weight and 12.26 μg EB per 100 g body weight
  μg Evans Blue (Abs * 4360): 501.4 µg and 545 µg and 1116.16 µg and 911.24 µg and 1303.64 µg and 876.36 µg

## CC(C)C[C@H]1C(=O)N2CCC[C@H]2[C@]2(O)O[C@](NC(=O)[C@@H]3C=C4c5cccc6[nH]c(Br)c(c56)C[C@H]4N(C)C3)(C(C)C)C(=O)N12 [bromocriptine]
[3]; 1.6 mg bromocriptine i.p. on day of hCG and 24 h later, p=0.04
  vascular permeability: 15.3±3.3 μg Evans Blue/100 g body weight
[3]; 4 mg bromocriptine i.p. on day of hCG and 24 h later, p=0.04
  vascular permeability: 14.2±2.2 μg Evans Blue/100 g body weight
[3]; 10 mg bromocriptine i.p. on day of hCG and 24 h later, p=0.009
  vascular permeability: 10.1±2.6 μg Evans Blue/100 g body weight
[3]; 25 mg bromocriptine i.p. on day of hCG and 24 h later, p=0.001
  vascular permeability: 8.0±1.9 μg Evans Blue/100 g body weight

## CCOC(=O)Oc1ccc(CCNC(=O)[C@H](CCSC)NC(C)=O)cc1OC(=O)OCC [docarpamine]
[4]
  ascites: ascites was decreased
  diuresis: Diuresis was increased in some women
